Test results as given in patent US11008355B2, “Crystal of 3'-sialyllactose sodium salt n-hydrate, and process for producing same” (KYOWA HAKKO BIO CO., LTD., priority 2016, dated 2021).
Where two headings read alike, the source gives them in different places.

Experiments:
[1] = 30° C., relative humidity of 80%; for Change in weight with lapse of time (in words): up to 8 hours
Description: Storage conditions: 30° C., relative humidity of 80% (apparatus: THE051FA, manufactured by Advantec Toyo Kaisha Ltd.)
Measurement method: After about 100 mg of a sample was weighed with a precision balance, the sample was packed in a glass container and stored under the above-mentioned conditions. Thereafter, the sample was weighed again, and the weight change ratio was calculated.
Incidentally, the weight of the sample at each elapsed time was measured by assuming the weight of each sample at the start of the test to be 100%.

[2] = pH of aqueous solution of the crystal; format: physicochemical; conditions: aqueous solution at 50 g/L as a crystal of 3SL sodium salt 8.0-hydrate
Description: As for the pH, an aqueous solution at 50 g/L as a crystal of 3SL sodium salt 8.0-hydrate was measured. The melting point was measured using Melting Point M-565 (manufactured by BUCHI Corporation) under a condition of 50° C. to 200° C. and 0.5° C./min according to the instruction book.

[3] = 50° C., relative humidity of 50%, HPLC, wt %
Description: Storage conditions: 50° C., relative humidity of 50% (adjusted with saturated sodium bromide solution)
Measurement method: About 5 g of a sample was weighed with a precision balance, the sample was packed in a glass container, and the amount of impurities (glucose, lactose, sialic acid) after heating was evaluated by HPLC (“%” in Table 5 represents “wt %”).

Row | Structure (SMILES) | Change in weight with lapse of time (in words) [1] | Weight of sample (weight at start of test = 100%) ([1]; elapsed time 0 hours) [%] | Weight of sample (weight at start of test = 100%) ([1]; elapsed time 0.5 hours) [%] | Weight of sample (weight at start of test = 100%) ([1]; elapsed time 2.5 hours) [%] | Weight of sample (weight at start of test = 100%) ([1]; elapsed time 8 hours) [%] | pH [2] | Glucose (impurity amount) ([3]; elapsed days 0) [%] | Lactose (impurity amount) ([3]; elapsed days 0) [%] | Sialic acid (impurity amount) ([3]; elapsed days 0) [%] | Glucose (impurity amount) ([3]; elapsed days 2) [%] | Lactose (impurity amount) ([3]; elapsed days 2) [%] | Sialic acid (impurity amount) ([3]; elapsed days 2) [%] | Glucose (impurity amount) ([3]; elapsed days 4) [%] | Lactose (impurity amount) ([3]; elapsed days 4) [%] | Sialic acid (impurity amount) ([3]; elapsed days 4) [%]
1 | CC(=O)N[C@H]1[C@H]([C@H](O)[C@H](O)CO)O[C@@](O[C@H]2[C@@H](O)[C@@H](CO)O[C@@H](O[C@H]3[C@H](O)[C@@H](O)C(O)O[C@@H]3CO)[C@@H]2O)(C(=O)[O-])C[C@@H]1O.[Na+] (some centres unmarked) [amorphous, 3SL sodium reagent, reference compound] | increase in weight | 100.0 | 123.1 | 130.5 | 130.4 |  |  |  |  |  |  |  |  |  | 
2 | CC(=O)NC1C(O)CC(OC2C(O)C(CO)OC(OC3C(CO)OC(O)C(O)C3O)C2O)(C(=O)[O-])OC1C(O)C(O)CO.O.O.O.O.O.O.O.O.[Na+] (centres unmarked) [Example 2, 3SL sodium salt 8.0-hydrate] | almost no change in weight | 100.0 | 100.2 | 99.9 | 99.9 | 6.00 | 0.03 | 0.01 | 0.08 | 0.04 | 0.01 | 0.10 | 0.04 | 0.02 | 0.09
3 | CC(=O)N[C@H]1[C@H]([C@H](O)[C@H](O)CO)O[C@@](O[C@H]2[C@@H](O)[C@@H](CO)O[C@@H](O[C@H]3[C@H](O)[C@@H](O)C(O)O[C@@H]3CO)[C@@H]2O)(C(=O)[O-])C[C@@H]1O.[Na+] (some centres unmarked) [Freeze-dried product, amorphous 3SL sodium, reference compound] |  |  |  |  |  |  | 0.11 | 0.02 | 0.14 | 0.14 | 0.03 | 0.21 | 0.16 | 0.07 | 0.26
